Experiment [1] concerns the target T1, Peroxisome proliferator-activated receptor gamma (Homo sapiens) (UniProt P37231).
T1 sequence (whole entry): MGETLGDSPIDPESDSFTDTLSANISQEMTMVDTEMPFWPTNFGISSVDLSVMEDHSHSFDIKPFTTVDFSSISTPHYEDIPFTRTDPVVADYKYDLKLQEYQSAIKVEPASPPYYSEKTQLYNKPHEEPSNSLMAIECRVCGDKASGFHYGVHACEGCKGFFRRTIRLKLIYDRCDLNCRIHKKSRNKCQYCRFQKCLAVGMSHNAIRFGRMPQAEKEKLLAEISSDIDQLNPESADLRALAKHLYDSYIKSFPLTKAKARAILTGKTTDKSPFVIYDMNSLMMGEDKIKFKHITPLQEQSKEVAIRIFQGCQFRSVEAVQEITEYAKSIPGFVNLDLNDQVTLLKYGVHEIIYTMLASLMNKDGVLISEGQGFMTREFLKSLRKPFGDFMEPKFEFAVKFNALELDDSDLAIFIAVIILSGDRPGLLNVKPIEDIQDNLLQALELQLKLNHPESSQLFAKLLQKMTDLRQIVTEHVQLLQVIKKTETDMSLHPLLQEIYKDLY
The experiment in a line: Binding affinity to human Gal4-fused PPARgamma LBD expressed in African green monkey COS7 cells assessed in presence of ADIBO-fluorescein. The experiment is classed as cell-based.

Experiment [2] concerns the target T1, Peroxisome proliferator-activated receptor gamma (Homo sapiens). In words: Binding affinity to Gal4-fused PPARgamma LBD (unknown origin) expressed in Escherichia coli DH5alpha cell lysates at 4 equiv in presence of ADIBO-fluorescein by SDS-PAGE analysis.
Experiment [3] shares this target. The experiment in a line: Binding affinity to Gal4-fused human PPARgamma LBD (204 to 477 residues) assessed as labeling efficiency at 100 uM after 12 hrs by ESI-mass analysis.
Experiment [4] has the same target. The experiment in a line: Binding affinity to Gal4-fused PPARgamma LBD (unknown origin) expressed in Escherichia coli DH5alpha cell lysates at 4 equiv in presence of ADIBO-fluorescein by Coomassie Brilliant Blue staining method.
The target is the same in experiment [5]. The experiment in a line: Binding affinity to Gal4-fused PPARgamma LBD (unknown origin) expressed in Escherichia coli DH5alpha cell lysates at 4 equiv in presence of ADIBO-fluorescein by silver staining method.
The target is the same in experiment [6]. The experiment in a line: Transactivation at human Gal4-fused PPARgamma LBD expressed in African green monkey COS7 cells by dual luciferase assay. Format: cell-based.
Experiment [7] concerns the target T2, Peroxisome proliferator-activated receptor gamma (Mus musculus) (UniProt P37238).
T2 sequence (whole entry): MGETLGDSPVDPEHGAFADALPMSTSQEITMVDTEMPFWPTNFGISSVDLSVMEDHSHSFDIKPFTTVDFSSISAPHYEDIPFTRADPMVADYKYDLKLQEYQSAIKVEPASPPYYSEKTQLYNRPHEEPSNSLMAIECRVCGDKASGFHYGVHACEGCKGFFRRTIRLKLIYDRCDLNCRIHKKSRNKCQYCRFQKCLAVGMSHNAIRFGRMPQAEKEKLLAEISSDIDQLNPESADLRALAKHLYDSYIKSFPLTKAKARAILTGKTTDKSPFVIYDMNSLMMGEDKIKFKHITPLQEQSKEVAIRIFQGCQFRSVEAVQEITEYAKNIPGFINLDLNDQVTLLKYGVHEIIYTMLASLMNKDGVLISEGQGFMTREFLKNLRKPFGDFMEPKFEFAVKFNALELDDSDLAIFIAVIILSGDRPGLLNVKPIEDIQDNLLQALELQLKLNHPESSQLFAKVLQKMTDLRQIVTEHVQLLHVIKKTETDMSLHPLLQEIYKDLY
In words: Binding affinity to Gal4-fused PPARgamma LBD in mouse 3T3-L1 cells assessed in presence of ADIBO-fluorescein. The experiment is classed as cell-based.

Experiment [8] addresses T1, Peroxisome proliferator-activated receptor gamma (Homo sapiens). In words: Binding affinity to Gal4-fused PPARgamma LBD (unknown origin) expressed in Escherichia coli DH5alpha cell lysates in presence of ADIBO-fluorescein by SDS-PAGE analysis.
For experiment [9] the target is unchanged. In words: Binding affinity to Gal4-fused human PPARgamma LBD (204 to 477 residues) assessed as covalent modification at 100 uM after 24 hrs by ESI-mass analysis.
For experiment [10] the target is unchanged. The experiment in a line: Binding affinity to Gal4-fused human PPARgamma LBD (204 to 477 residues) assessed as covalent modification at 100 uM after 24 hrs in presence of methyl N-((3E,5E)-2-oxohexadeca-3,5-dien-1-yl)-N-tosylglycinate by ESI-mass analysis.
The target is the same in experiment [11]. The experiment in a line: Binding affinity to Gal4-fused human PPARgamma LBD (204 to 477 residues) assessed as covalent modification at 100 uM after 24 hrs in presence of methyl N-((3E,5E)-16-azido-2-oxohexadeca-3,5-dien-1-yl)-N-tosylglycinate by ESI-mass analysis.

Activity calls are given as the source filed them. The calls are words filed in the database; no cut-off is given here.

Consider `COC(=O)CN(CC(=O)/C=C/C=C/CCCCCCCCCCN=[N+]=[N-])S(=O)(=O)c1ccc(C)cc1`, for which the outcome in experiment [1] and in [7] was inactive. Besides, the result in [2], in experiment [3], in experiment [4], in experiment [5] and in experiment [9] was Active. Besides, the Activity entry in experiment [6] and in experiment [8] was “Dose-dependent effect” in each case.

For the compound `Cc1ccc(S(=O)(=O)N(CC(=O)O)CC(=O)/C=C/C=C/CCCCCCCCCCn2nnc3c2-c2ccccc2CN(C(=O)CCCCCNC(=O)C(F)(F)F)c2ccccc2-3)cc1`, in [3], the result was Active.

Turning to `CCCCCCCCCC/C=C/C=C/C(=O)CN(CC(=O)OC)S(=O)(=O)c1ccc(C)cc1`, the Activity entry in [6] was “Dose-dependent effect”.

Consider `O=C(O)c1cc(NC(=S)NCCCCCC(=O)N2Cc3ccccc3C#Cc3ccccc32)ccc1-c1c2ccc(=O)cc-2oc2cc(O)ccc12`, for which the outcome in [4] was Active.

For the compound `O=C(CCCCCNC(=O)C(F)(F)F)N1Cc2ccccc2C#Cc2ccccc21`, the result in [10] was inactive. Moreover, in experiment [11], the outcome was Active.

Values taken from ChEMBL document CHEMBL4177649, “On-site reaction for PPARγ modification using a specific bifunctional ligand” (Bioorg Med Chem, 2017).
